Patent US6350744B1, “Compounds having cytokine inhibitory activity” (Merck & Co., Inc., priority 1998, dated 2002)

melting point | SMILES
188 to 189 °C | CN1CCC(c2cc(-c3ccncc3)c(-c3cccc(C(F)(F)F)c3)nn2)CC1 [Example 11, 3-(3-trifluoromethylphenyl)-4(pyridine-4-yl)-6-(N-methylpiperidin-4-yl)pyridazine]
148 to 150 °C | FC(F)(F)c1cccc(-c2cc(C3CCNCC3)nnc2-c2ccncc2)c1 [Example 28, 3-(pyridine-4-yl)-4-(3-trifluoromethylphenyl)-6-(piperidin-4-yl)pyridazine]
